What was measured:
[1] = target: Tyrosine-protein kinase ABL2 (Homo sapiens) (UniProt P42684); conditions: Compound concentration 1000.0 nM
[2] = target: RAC-alpha serine/threonine-protein kinase (Homo sapiens) (UniProt P31749); conditions: Compound concentration 1000.0 nM
[3] = target: Aurora kinase B (Homo sapiens) (UniProt Q96GD4); conditions: Compound concentration 1000.0 nM
[4] = target: Calcium/calmodulin-dependent protein kinase type 1 (Homo sapiens) (UniProt Q14012); conditions: Compound concentration 1000.0 nM
Calcium/calmodulin-dependent protein kinase type 1 (Homo sapiens), sequence (Q14012 whole entry, looked up): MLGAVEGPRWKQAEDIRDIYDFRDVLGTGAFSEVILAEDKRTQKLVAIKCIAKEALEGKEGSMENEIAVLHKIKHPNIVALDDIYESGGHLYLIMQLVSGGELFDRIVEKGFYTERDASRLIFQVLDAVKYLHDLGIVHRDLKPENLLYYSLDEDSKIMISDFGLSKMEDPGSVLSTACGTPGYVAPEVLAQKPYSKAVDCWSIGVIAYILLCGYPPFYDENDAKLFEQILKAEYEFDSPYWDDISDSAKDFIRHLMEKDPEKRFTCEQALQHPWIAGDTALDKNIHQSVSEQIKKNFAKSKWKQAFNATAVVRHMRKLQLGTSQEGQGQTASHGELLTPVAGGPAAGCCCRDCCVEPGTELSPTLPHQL

[5] = target: Calcium/calmodulin-dependent protein kinase type II subunit gamma (Homo sapiens) (UniProt Q13555); conditions: Compound concentration 1000.0 nM
[6] = target: Calcium/calmodulin-dependent protein kinase kinase 1 (Homo sapiens) (UniProt Q8N5S9); conditions: Compound concentration 1000.0 nM
[7] = target: Cyclin-dependent kinase 9 (Homo sapiens) (UniProt P50750); conditions: Compound concentration 1000.0 nM
[8] = target: Cyclin-dependent kinase-like 2 (Homo sapiens) (UniProt Q92772); conditions: Compound concentration 1000.0 nM
[9] = target: Megakaryocyte-associated tyrosine-protein kinase (Homo sapiens) (UniProt P42679); conditions: Compound concentration 1000.0 nM
[10] = target: Death-associated protein kinase 2 (Homo sapiens) (UniProt Q9UIK4); conditions: Compound concentration 1000.0 nM
[11] = target: Mitogen-activated protein kinase kinase kinase 12 (Homo sapiens) (UniProt Q12852); conditions: Compound concentration 1000.0 nM
[12] = tested on: Epidermal growth factor receptor (Homo sapiens), P00533 [G719S]; conditions: Compound concentration 1000.0 nM
[13] = target: Receptor-type tyrosine-protein kinase FLT3 (Homo sapiens) (UniProt P36888); conditions: Compound concentration 1000.0 nM
[14] = target: Insulin receptor-related protein (Homo sapiens) (UniProt P14616); conditions: Compound concentration 1000.0 nM
Insulin receptor-related protein (Homo sapiens), sequence (P14616 27-742 limits assumed): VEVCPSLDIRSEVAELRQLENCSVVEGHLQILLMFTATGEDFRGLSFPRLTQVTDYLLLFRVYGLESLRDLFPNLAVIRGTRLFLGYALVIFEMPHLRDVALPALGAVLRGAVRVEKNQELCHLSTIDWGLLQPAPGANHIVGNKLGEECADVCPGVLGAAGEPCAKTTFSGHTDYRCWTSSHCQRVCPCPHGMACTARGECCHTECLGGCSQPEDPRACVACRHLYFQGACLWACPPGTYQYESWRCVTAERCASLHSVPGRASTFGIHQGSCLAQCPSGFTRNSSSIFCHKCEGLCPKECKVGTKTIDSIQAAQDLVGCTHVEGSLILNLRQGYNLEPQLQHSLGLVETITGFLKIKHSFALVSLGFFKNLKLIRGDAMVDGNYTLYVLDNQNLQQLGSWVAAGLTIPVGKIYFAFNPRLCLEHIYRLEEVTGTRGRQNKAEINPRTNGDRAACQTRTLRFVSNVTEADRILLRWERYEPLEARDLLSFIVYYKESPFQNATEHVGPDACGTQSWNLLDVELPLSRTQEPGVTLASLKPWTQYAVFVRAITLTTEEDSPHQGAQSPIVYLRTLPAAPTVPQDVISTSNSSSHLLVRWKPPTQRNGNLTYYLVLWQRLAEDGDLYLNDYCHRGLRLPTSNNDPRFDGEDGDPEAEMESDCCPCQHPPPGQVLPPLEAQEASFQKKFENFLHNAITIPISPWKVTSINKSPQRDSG
Insulin receptor-related protein (Homo sapiens), sequence (P14616 747-1297 limits assumed): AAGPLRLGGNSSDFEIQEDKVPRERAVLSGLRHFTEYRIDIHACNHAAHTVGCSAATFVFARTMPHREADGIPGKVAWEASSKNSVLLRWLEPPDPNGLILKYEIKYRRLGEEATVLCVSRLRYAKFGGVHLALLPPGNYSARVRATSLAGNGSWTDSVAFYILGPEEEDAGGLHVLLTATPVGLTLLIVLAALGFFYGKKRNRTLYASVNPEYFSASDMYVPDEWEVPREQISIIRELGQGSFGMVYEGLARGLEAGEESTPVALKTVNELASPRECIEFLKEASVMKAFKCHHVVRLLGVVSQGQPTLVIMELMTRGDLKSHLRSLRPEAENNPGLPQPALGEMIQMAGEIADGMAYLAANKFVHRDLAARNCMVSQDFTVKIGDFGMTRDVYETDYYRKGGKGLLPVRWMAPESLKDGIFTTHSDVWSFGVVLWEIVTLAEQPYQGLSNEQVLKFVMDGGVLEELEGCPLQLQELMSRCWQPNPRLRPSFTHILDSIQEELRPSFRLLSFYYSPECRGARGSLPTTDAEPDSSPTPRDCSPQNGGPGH

[15] = tested on: Mast/stem cell growth factor receptor Kit (Homo sapiens), P10721 [L576P]; conditions: Compound concentration 1000.0 nM
[16] = target: Serine/threonine-protein kinase LATS2 (Homo sapiens) (UniProt Q9NRM7); conditions: Compound concentration 1000.0 nM
[17] = target: Mitogen-activated protein kinase kinase kinase 1 (Homo sapiens) (UniProt Q13233); conditions: Compound concentration 1000.0 nM
[18] = target: Mitogen-activated protein kinase kinase kinase 2 (Homo sapiens) (UniProt Q9Y2U5); conditions: Compound concentration 1000.0 nM
Mitogen-activated protein kinase kinase kinase 2 (Homo sapiens), sequence (Q9Y2U5 whole entry): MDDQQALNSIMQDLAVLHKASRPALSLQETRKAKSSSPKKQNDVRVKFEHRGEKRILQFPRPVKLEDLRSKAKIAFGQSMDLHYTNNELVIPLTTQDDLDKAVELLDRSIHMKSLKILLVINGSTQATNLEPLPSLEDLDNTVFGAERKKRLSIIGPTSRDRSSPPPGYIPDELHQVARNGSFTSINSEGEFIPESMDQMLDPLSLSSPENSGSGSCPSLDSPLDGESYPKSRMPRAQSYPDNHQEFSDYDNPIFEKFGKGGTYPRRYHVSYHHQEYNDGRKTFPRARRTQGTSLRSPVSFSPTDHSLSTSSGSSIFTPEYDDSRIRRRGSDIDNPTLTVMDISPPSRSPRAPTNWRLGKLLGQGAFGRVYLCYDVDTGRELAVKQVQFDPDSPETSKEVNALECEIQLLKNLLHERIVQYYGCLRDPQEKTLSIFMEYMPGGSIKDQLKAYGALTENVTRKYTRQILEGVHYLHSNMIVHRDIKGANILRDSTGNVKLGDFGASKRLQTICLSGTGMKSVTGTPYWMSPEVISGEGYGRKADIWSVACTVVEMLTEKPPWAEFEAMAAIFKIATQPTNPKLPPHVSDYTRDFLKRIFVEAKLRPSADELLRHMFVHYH

[19] = target: Mitogen-activated protein kinase kinase kinase 3 (Homo sapiens) (UniProt Q99759); conditions: Compound concentration 1000.0 nM
[20] = target: Myosin light chain kinase (Homo sapiens) (UniProt Q32MK0); conditions: Compound concentration 1000.0 nM
[21] = target: Serine/threonine-protein kinase Nek5 (Homo sapiens) (UniProt Q6P3R8); conditions: Compound concentration 1000.0 nM
[22] = target: Mitogen-activated protein kinase 14 (Homo sapiens) (UniProt Q16539); conditions: Compound concentration 1000.0 nM
Mitogen-activated protein kinase 14 (Homo sapiens), sequence (Q16539 whole entry): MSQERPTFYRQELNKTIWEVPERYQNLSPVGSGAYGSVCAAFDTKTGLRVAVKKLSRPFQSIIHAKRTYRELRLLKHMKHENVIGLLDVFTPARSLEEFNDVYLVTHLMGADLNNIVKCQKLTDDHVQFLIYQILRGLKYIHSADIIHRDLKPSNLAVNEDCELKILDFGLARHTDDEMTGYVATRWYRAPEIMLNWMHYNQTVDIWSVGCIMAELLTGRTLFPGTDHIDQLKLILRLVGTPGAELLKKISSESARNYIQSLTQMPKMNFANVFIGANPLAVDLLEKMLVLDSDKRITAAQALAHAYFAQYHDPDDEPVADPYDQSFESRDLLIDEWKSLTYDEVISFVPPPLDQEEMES

[23] = target: Cyclin-dependent kinase 16 (Homo sapiens) (UniProt Q00536); conditions: Compound concentration 1000.0 nM
[24] = target: 3-phosphoinositide-dependent protein kinase 1 (Homo sapiens) (UniProt O15530); conditions: Compound concentration 1000.0 nM
[25] = target: Phosphorylase b kinase gamma catalytic chain, skeletal muscle/heart isoform (Homo sapiens) (UniProt Q16816); conditions: Compound concentration 1000.0 nM
[26] = tested on: Phosphatidylinositol 4,5-bisphosphate 3-kinase catalytic subunit alpha isoform (Homo sapiens), P42336 [H1047L]; conditions: Compound concentration 1000.0 nM
[27] = target: Phosphatidylinositol 4,5-bisphosphate 3-kinase catalytic subunit gamma isoform (Homo sapiens) (UniProt P48736); conditions: Compound concentration 1000.0 nM
[28] = target: Serine/threonine-protein kinase N1 (Homo sapiens) (UniProt Q16512); conditions: Compound concentration 1000.0 nM
[29] = tested on: Proto-oncogene tyrosine-protein kinase receptor Ret (Homo sapiens), P07949 [V804M]; conditions: Compound concentration 1000.0 nM
[30] = target: Proto-oncogene tyrosine-protein kinase ROS (Homo sapiens) (UniProt P08922); conditions: Compound concentration 1000.0 nM
[31] = target: Ribosomal protein S6 kinase alpha-5 (Homo sapiens) (UniProt O75582); conditions: Compound concentration 1000.0 nM
[32] = target: Ribosomal protein S6 kinase alpha-1 (Homo sapiens) (UniProt Q15418); conditions: Compound concentration 1000.0 nM
Ribosomal protein S6 kinase alpha-1 (Homo sapiens), sequence (Q15418 whole entry): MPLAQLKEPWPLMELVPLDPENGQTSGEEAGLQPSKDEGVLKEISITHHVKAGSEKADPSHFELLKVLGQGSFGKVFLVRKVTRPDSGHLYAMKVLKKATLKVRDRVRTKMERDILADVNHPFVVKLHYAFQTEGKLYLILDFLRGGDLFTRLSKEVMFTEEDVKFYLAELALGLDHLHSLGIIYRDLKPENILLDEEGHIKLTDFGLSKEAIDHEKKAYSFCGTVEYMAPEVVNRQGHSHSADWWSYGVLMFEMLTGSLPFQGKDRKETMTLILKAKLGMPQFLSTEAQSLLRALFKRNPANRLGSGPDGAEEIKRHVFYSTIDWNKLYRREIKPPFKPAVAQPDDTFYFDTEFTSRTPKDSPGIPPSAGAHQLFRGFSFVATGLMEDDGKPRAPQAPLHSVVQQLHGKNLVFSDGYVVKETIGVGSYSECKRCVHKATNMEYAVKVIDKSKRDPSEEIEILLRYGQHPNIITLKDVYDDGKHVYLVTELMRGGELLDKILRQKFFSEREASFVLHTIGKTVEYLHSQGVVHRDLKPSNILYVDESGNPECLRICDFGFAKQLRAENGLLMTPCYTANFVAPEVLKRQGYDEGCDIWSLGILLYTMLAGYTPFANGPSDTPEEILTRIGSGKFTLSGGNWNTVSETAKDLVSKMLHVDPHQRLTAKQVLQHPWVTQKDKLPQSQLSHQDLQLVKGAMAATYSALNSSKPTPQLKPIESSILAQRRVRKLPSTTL

[33] = target: Ribosomal protein S6 kinase alpha-1 (Homo sapiens) (UniProt Q15418); conditions: Compound concentration 1000.0 nM; remark: listed apart in the source
[34] = target: Ribosomal protein S6 kinase alpha-3 (Homo sapiens) (UniProt P51812); conditions: Compound concentration 1000.0 nM
Ribosomal protein S6 kinase alpha-3 (Homo sapiens), sequence (P51812 whole entry): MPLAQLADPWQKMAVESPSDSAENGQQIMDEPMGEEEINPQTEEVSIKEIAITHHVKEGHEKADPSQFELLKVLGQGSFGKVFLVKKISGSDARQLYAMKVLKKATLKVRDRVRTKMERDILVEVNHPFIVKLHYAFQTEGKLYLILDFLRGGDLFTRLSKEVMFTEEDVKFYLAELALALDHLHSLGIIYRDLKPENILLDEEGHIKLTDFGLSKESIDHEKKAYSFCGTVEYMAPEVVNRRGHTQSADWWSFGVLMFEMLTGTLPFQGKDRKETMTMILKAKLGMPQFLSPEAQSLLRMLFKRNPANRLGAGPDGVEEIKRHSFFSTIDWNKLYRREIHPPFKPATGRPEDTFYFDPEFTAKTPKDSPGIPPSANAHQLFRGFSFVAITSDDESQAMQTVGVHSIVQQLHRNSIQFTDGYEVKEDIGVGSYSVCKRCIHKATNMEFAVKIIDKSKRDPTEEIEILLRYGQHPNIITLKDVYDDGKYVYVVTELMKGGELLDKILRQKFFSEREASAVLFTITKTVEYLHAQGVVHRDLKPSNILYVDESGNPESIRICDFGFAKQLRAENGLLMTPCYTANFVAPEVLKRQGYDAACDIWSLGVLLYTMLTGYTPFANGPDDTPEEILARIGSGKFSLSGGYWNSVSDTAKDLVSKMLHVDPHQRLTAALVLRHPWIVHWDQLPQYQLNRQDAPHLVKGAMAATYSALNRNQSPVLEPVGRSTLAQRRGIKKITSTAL

[35] = target: Ribosomal protein S6 kinase beta-1 (Homo sapiens) (UniProt P23443); conditions: Compound concentration 1000.0 nM
[36] = target: Uncharacterized serine/threonine-protein kinase SBK3 (Homo sapiens) (UniProt P0C264); conditions: Compound concentration 1000.0 nM
[37] = target: Tyrosine-protein kinase SYK (Homo sapiens) (UniProt P43405); conditions: Compound concentration 1000.0 nM
[38] = target: TGF-beta receptor type-1 (Homo sapiens) (UniProt P36897); conditions: Compound concentration 1000.0 nM
[39] = target: Tyrosine-protein kinase receptor Tie-1 (Homo sapiens) (UniProt P35590); conditions: Compound concentration 1000.0 nM
[40] = target: Serine/threonine-protein kinase ULK3 (Homo sapiens) (UniProt Q6PHR2); conditions: Compound concentration 1000.0 nM
[41] = target: Tyrosine-protein kinase ZAP-70 (Homo sapiens) (UniProt P43403); conditions: Compound concentration 1000.0 nM
Tyrosine-protein kinase ZAP-70 (Homo sapiens), sequence (P43403 whole entry): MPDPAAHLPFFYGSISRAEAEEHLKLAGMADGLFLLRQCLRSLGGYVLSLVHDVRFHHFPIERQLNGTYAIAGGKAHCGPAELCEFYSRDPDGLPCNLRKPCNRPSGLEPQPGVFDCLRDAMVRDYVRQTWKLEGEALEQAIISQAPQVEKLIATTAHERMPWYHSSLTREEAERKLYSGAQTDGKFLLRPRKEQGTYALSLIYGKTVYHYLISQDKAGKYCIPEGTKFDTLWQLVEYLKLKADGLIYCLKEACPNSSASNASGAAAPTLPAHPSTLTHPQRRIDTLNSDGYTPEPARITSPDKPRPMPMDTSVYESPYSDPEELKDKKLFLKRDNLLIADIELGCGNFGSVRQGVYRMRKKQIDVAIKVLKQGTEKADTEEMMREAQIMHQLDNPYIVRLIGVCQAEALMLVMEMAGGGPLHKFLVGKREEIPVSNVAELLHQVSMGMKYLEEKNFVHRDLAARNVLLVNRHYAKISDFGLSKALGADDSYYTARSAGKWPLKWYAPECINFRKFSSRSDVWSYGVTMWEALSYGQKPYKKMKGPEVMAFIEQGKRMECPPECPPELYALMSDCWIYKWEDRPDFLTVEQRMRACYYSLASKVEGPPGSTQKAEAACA

[42] = target: 5-hydroxytryptamine receptor 1B (Homo sapiens) (UniProt P28222); conditions: Compound concentration 10.0 uM
[43] = target: D(4) dopamine receptor (Homo sapiens) (UniProt P21917); conditions: Compound concentration 10.0 uM
[44] = target: Mu-type opioid receptor (Homo sapiens) (UniProt P35372); conditions: Compound concentration 10.0 uM
[45] = target: Histamine H4 receptor (Homo sapiens) (UniProt Q9H3N8); conditions: Compound concentration 10.0 uM

## O=C(Nc1cnc(Oc2ccc(F)cc2)nc1)N1CCc2ncccc2[C@@H]1c1ccc(F)cc1 [BAY-899]
[1]
  residual activity: 78%
[2]
  residual activity: 100%
[3]
  residual activity: 80%
[4]
  residual activity: 73%
[5]
  residual activity: 80%
[6]
  residual activity: 92%
[7]
  residual activity: 93%
[8]
  residual activity: 33%
[9]
  residual activity: 80%
[10]
  residual activity: 91%
[11]
  residual activity: 100%
[12]
  residual activity: 72%
[13]
  residual activity: 84%
[14]
  residual activity: 84%
[15]
  residual activity: 100%
[16]
  residual activity: 99%
[17]
  residual activity: 89%
[18]
  residual activity: 99%
[19]
  residual activity: 97%
[20]
  residual activity: 89%
[21]
  residual activity: 90%
[22]
  residual activity: 79%
[23]
  residual activity: 75%
[24]
  residual activity: 97%
[25]
  residual activity: 100%
[26]
  residual activity: 92%
[27]
  residual activity: 85%
[28]
  residual activity: 95%
[29]
  residual activity: 94%
[30]
  residual activity: 82%
[31]
  residual activity: 74%
[32]
  residual activity: 71%
[33]
  residual activity: 76%
[34]
  residual activity: 97%
[35]
  residual activity: 89%
[36]
  residual activity: 90%
[37]
  residual activity: 84%
[38]
  residual activity: 90%
[39]
  residual activity: 88%
[40]
  residual activity: 95%
[41]
  residual activity: 93%
[42]
  inhibition: 36.4%
[43]
  inhibition: 43.8%
[44]
  inhibition: 28.1%
[45]
  inhibition: -4.41%

## O=C(Nc1ccc(Oc2ccc(F)cc2)cc1)N1CCc2ncccc2[C@H]1c1ccc(F)cc1 [BAY-897]
[1]
  residual activity: 88%
[2]
  residual activity: 95%
[3]
  residual activity: 89%
[4]
  residual activity: 70%
[5]
  residual activity: 96%
[6]
  residual activity: 99%
[7]
  residual activity: 87%
[8]
  residual activity: 77%
[9]
  residual activity: 90%
[10]
  residual activity: 100%
[11]
  residual activity: 100%
[12]
  residual activity: 74%
[13]
  residual activity: 77%
[14]
  residual activity: 94%
[15]
  residual activity: 100%
[16]
  residual activity: 100%
[17]
  residual activity: 87%
[18]
  residual activity: 89%
[19]
  residual activity: 87%
[20]
  residual activity: 80%
[21]
  residual activity: 96%
[22]
  residual activity: 100%
[23]
  residual activity: 65%
[24]
  residual activity: 88%
[25]
  residual activity: 100%
[26]
  residual activity: 85%
[27]
  residual activity: 87%
[28]
  residual activity: 100%
[29]
  residual activity: 94%
[30]
  residual activity: 76%
[31]
  residual activity: 74%
[32]
  residual activity: 79%
[33]
  residual activity: 92%
[34]
  residual activity: 84%
[35]
  residual activity: 100%
[36]
  residual activity: 70%
[37]
  residual activity: 91%
[38]
  residual activity: 85%
[39]
  residual activity: 85%
[40]
  residual activity: 99%
[41]
  residual activity: 91%
[42]
  inhibition: 18.8%
[43]
  inhibition: 0.29%
[44]
  inhibition: 37.1%
[45]
  inhibition: 7.56%
